Measurements reported in patent US20100075343A1, “NOVEL PEPTIDES” (priority 2007, published 2010).

Key:
[1] = test system: spleen of apoaequorin-expressing mice; test: Intracellular calcium ion increase (aequorin luminescence), spleen; format: cell-based, mouse; conditions: peptide at final concentrations of 1 μmol/L and 5 μmol/L
Protocol: (§1) A hypothalamus, pituitary gland, kidney, heart, blood vessel, or a portion of brain tissue is collected from transgenic mice systemically expressing apoaequorin (WO02/010371) produced by introducing an apoaequorin gene expression vector into fertilized eggs. The obtained hypothalamus, pituitary gland, kidney, heart, blood vessel, or brain tissue is cut finely into pieces, suspended in a medium containing coelenterazine, and then incubated to incorporate coelenterazine into the cells to form aequorin (a complex of apoaequorin and coelenterazine). Since aequorin luminesces upon binding to intracellular calcium ions, the relative luminescence level in cells before and after addition of a medium containing the peptide or a pharmaceutically acceptable salt thereof is measured in a luminometer every second over time and is used as an indicator of intracellular calcium ion concentration. Increase in the relative luminescence level due to addition of the peptide or pharmaceutically acceptable salt thereof confirms that the peptide or pharmaceutically acceptable salt thereof has the activity to increase intracellular calcium ion concentration.
(§2) Whether Peptides 1 to 8 synthesized in Example 2 have the activity of increasing intracellular calcium ion concentration was investigated using the organs of transgenic mice introduced with the apoaequorin gene and systemically expressing apoaequorin (hereinafter referred to as apoaequorin-expressing mice). In apoaequorin-expressing mouse cells, light is emitted when apoaequorin binds to a calcium ion in the presence of the luminescent substrate coelenterazine and thus the intracellular calcium ion concentration can be monitored. Patent Document (WO02/010371) discloses the method for producing apoaequorin-expressing mice, method for evaluating biologically active substances that use biological samples derived from the mice, and experimental results of evaluating biologically active peptides using the mouse organs as shown below. […] Therefore, apoaequorin-expressing mice can be used in the evaluation of the physiological activities of novel peptides.
(§3) Apoaequorin-expressing mice were produced according to the method disclosed in Reference Example 4 of Patent Document (WO02/010371). […] After culturing, RPMI 1640 medium was added, and then Peptides 1 to 5 dissolved in RPMI 1640 medium were added 25 seconds after the addition of RPMI 1640 until each peptide had final concentrations of 1 μmol/L and of 5 μmol/L, and the relative luminescence levels were measured every second immediately after the addition of RPMI 1640 medium by using a luminometer (AutoLumat LB953, manufactured by Berthold).

[2] = test system: thymus of apoaequorin-expressing mice; test: Intracellular calcium ion increase (aequorin luminescence), thymus; format: cell-based, mouse; conditions: peptide at final concentrations of 1 μmol/L and 5 μmol/L
Protocol: as §1, §2, §3

[3] = test system: aortic cells of the apoaequorin-expressing mice; test: Intracellular calcium ion increase (aequorin luminescence), aorta; format: cell-based, mouse
Protocol: as §1, §2, §3

[4] = test system: medulla oblongata of apoaequorin-expressing mice; test: Intracellular calcium ion increase (aequorin luminescence), medulla oblongata; format: cell-based, mouse; conditions: peptide at final concentrations of 1 μmol/L and 5 μmol/L
Protocol: as §1, §2
(§4) Apoaequorin-expressing mice were produced according to the method disclosed in Reference Example 4 of Patent Document (WO02/010371). The apoaequorin-expressing mice were sacrificed, individual organs including thymus, hypothalamus, spleen, bone, aorta, heart, kidney, adrenal gland, pancreas, pituitary gland, uterus, medulla oblongata, and spinal cord were removed; and each of the organs was cut into small cubes of approximately 1 to 2 mm^3. Next, in 5-mL tubes (Rohren-Tubes; manufactured by Sarstedt, No. 55.476), three portions of each of the prepared organs were added to 50 μL of a 10 μmol/L solution of coelenterazine (manufactured by Molecular Probes) dissolved in RPMI 1640 medium, and these were cultured at 37° C. for three hours. After culturing, RPMI 1640 medium was added, and then Peptides 1 to 5 dissolved in RPMI 1640 medium were added 25 seconds after the addition of RPMI 1640 until each peptide had final concentrations of 1 μmol/L and of 5 μmol/L, and the relative luminescence levels were measured every second immediately after the addition of RPMI 1640 medium by using a luminometer (AutoLumat LB953, manufactured by Berthold).

[5] = test system: hypothalamic cells of the apoaequorin-expressing mice; test: Intracellular calcium ion increase (aequorin luminescence), hypothalamus; format: cell-based, mouse; conditions: for increase of intracellular calcium concentration in hypothalamic cells (RLU per second): 5 μmol/L peptide, added at 25 seconds; for luminescence (intracellular calcium ion increase) in hypothalamus: peptide at final concentrations of 1 μmol/L and 5 μmol/L
Protocol: as §1, §2, §4

[6] = test system: uterus of apoaequorin-expressing mice; test: Intracellular calcium ion increase (aequorin luminescence), uterus; format: cell-based, mouse; conditions: peptide at final concentrations of 1 μmol/L and 5 μmol/L
Protocol: (§5) A hypothalamus, pituitary gland, kidney, heart, blood vessel, or a portion of brain tissue is collected from transgenic mice systemically expressing apoaequorin (WO02/010371) produced by introducing an apoaequorin gene expression vector into fertilized eggs. The obtained hypothalamus, pituitary gland, kidney, heart, blood vessel, or brain tissue is cut finely into pieces, suspended in a medium containing coelenterazine, and then incubated to incorporate coelenterazine into the cells to form aequorin (a complex of apoaequorin and coelenterazine). Since aequorin luminesces upon binding to intracellular calcium ions, the relative luminescence level in cells before and after addition of a medium containing the peptide or a pharmaceutically acceptable salt thereof is measured in a luminometer every second over time and is used as an indicator of intracellular calcium ion concentration. Increase in the relative luminescence level due to addition of the peptide or pharmaceutically acceptable salt thereof confirms that the peptide or pharmaceutically acceptable salt thereof has the activity to increase intracellular calcium ion concentration. […]

[7] = test system: cardiac cells of the apoaequorin-expressing mice; test: Intracellular calcium ion increase (aequorin luminescence), heart; format: cell-based, mouse; conditions: for luminescence (intracellular calcium ion increase) in heart: peptide at final concentrations of 1 μmol/L and 5 μmol/L; for increase of intracellular calcium concentration in cardiac cells (RLU per second): 5 μmol/L peptide, added at 25 seconds
Protocol: as §1, §2, §4

[8] = test system: pituitary cells of the apoaequorin-expressing mice; test: Intracellular calcium ion increase (aequorin luminescence), pituitary gland; format: cell-based, mouse; conditions: for increase of intracellular calcium concentration in pituitary cells (RLU per second): added at 25 seconds; for luminescence (intracellular calcium ion increase) in pituitary gland: peptide at final concentrations of 1 μmol/L and 5 μmol/L
Protocol: as §1, §2, §4

[9] = test system: kidney cells of the apoaequorin-expressing mice; test: Intracellular calcium ion increase (aequorin luminescence), kidney; format: cell-based, mouse; conditions: for increase of intracellular calcium concentration in kidney cells (RLU per second): 1 μmol/L peptide, added at 25 seconds; for luminescence (intracellular calcium ion increase) in kidney: peptide at final concentrations of 1 μmol/L and 5 μmol/L
Protocol: as §1, §2, §4

[10] = test system: adrenal glands of apoaequorin-expressing mice; conditions: final concentration of 1 μmol/L; reported in WO02/010371; cited from earlier work
[11] = test system: blood vessels of apoaequorin-expressing mice; conditions: final concentration of 1 μmol/L; reported in WO02/010371; cited from earlier work
[12] = test system: antiserum against ESPGPERVW peptide of human VGF; format: binding; conditions: 1, 10, and 100 pmol of the peptides
Protocol: Namely, to 100 μL of antiserum diluted 9×10^5 folds with RIA buffer, 100 μL of RIA buffer containing a fixed amount of [^125I]-labeled Peptide 1 (approximately 20000 cpm, 500-550 Bq, approximately 9 fmol in terms of peptide amount) and 100 μL of RIA buffer solutions each containing a sequentially diluted VGF-derived peptide were added, this was incubated at 4° C. for 40 hours, and the labeled Peptide 1 and VGF-derived peptide were competitively bound to the antibody in the antiserum. As controls, reactions that use RIA buffer instead of the antiserum to measure non-specific binding, and reactions that use RIA buffer instead of VGF-derived peptide solutions to measure the maximum binding level were carried out. Reactions for non-specific binding were performed in quadruplicates, and the other reactions were performed in duplicates, and for each of the reactants, the immune complex was precipitated as in the above-mentioned antibody titer measurements, and its radioactivity (cpm) was measured. The average radioactivity of non-specific binding reaction is defined as non-specific binding level N, the radioactivity value for each VGF-derived peptide addition reaction is defined as Y, and the radioactivity value of maximum binding reaction is defined as Z. The percentage ratio (B/B0) of antiserum specific binding level (B) with peptide addition to the maximum binding level (B0), was determined using the following formula.
B/B0(%)={(Y−N)/(Z−N)}×100
Accordingly, the amount of peptide that achieves 50% B/B0, more specifically, the amount of peptide that yields 50% inhibition of the maximum binding level, was used as an indicator of the peptide binding activity to the antiserum.

[13] = test system: uterus of apoaequorin-expressing mice; conditions: final concentration of 1 μmol/L; reported in WO02/010371; cited from earlier work
[14] = test system: spinal cord of apoaequorin-expressing mice; test: Intracellular calcium ion increase (aequorin luminescence), spinal cord; format: cell-based, mouse; conditions: peptide at final concentrations of 1 μmol/L and 5 μmol/L
Protocol: as §5

male rats = conditions: direct administration to the PVN of male rats; Non-patent Document 7; cited from earlier work
[15] = test system: rats fed with high-calorie diets; conditions: administered into the rat ventricle, Non-patent Document 6; cited from earlier work

Row | Substance | luminescence (intracellular calcium ion increase) in spleen [1] | luminescence (intracellular calcium ion increase) in thymus [2] | luminescence (intracellular calcium ion increase) in medulla oblongata [4] | increase of intracellular calcium concentration in hypothalamic cells (RLU per second) [5] | luminescence (intracellular calcium ion increase) in hypothalamus [5] | luminescence (intracellular calcium ion increase) in uterus [6] | luminescence (intracellular calcium ion increase) in heart [7] | increase of intracellular calcium concentration in pituitary cells (RLU per second) ([8]; 5 μmol/L peptide) | luminescence (intracellular calcium ion increase) in pituitary gland [8] | increase of intracellular calcium concentration in kidney cells (RLU per second) [9] | luminescence (intracellular calcium ion increase) in kidney [9] | luminescence (intracellular calcium ion increase) in spinal cord [14] | increase of intracellular calcium concentration in cardiac cells (RLU per second) [7] | other results
1 | Peptide 6: amino acid sequence at position 353 to 372 in rat VGF (GLQETQQERENEREEEAEQE; synthetic Peptide 6, VGF-related peptide, rat VGF positions 353-372) | luminescence was observed | luminescence was observed | luminescence was observed | increase of intracellular calcium concentration | luminescence was observed | luminescence was observed | luminescence was observed | increase of intracellular calcium concentration | luminescence was observed | increase of intracellular calcium concentration | luminescence was observed |  |  | increase of intracellular calcium concentration in aortic cells (RLU per second) ([3]; 1 μmol/L peptide, added at 25 seconds): increase of intracellular calcium concentration; luminescence (intracellular calcium ion increase) in aorta ([3]; peptide at final concentrations of 1 μmol/L and 5 μmol/L): luminescence was observed
2 | angiotensin II (DRVYIHPF) [non-VGF peptide] |  |  |  |  |  |  |  |  |  |  |  |  |  | luminescence in adrenal glands [10]: strong luminescence was observed; luminescence in blood vessels [11]: strong luminescence was observed; inhibition of binding of the antiserum to labeled peptide [12]: none of these peptides showed inhibition; luminescence in uterus [13]: strong luminescence was observed
3 | Peptide 5: amino acid sequence at position 211 to 236 in rat VGF (ASWGEFQARVPERAPLPPSVPSQFQA; synthetic Peptide 5, VGF-related peptide, rat VGF positions 211-236) | luminescence was observed |  | luminescence was observed | increase of intracellular calcium concentration | luminescence was observed | luminescence was observed | luminescence was observed | increase of intracellular calcium concentration | luminescence was observed | increase of intracellular calcium concentration | luminescence was observed | luminescence was observed | increase of intracellular calcium concentration | 
4 | rat VGF (556-576): known peptide, positions 556-576 of the rat VGF amino acid sequence |  |  |  |  |  |  |  |  |  |  |  |  |  | erection inducing activity (male rats): this activity was not observed; suppression of weight gain [15]: activity of suppressing weight gain
5 | Peptide 8: amino acid sequence at position 423 to 430 in rat VGF (SQEEAPGH; synthetic Peptide 8, VGF-related peptide, rat VGF positions 423-430) | luminescence was observed | luminescence was observed | luminescence was observed |  |  |  | luminescence was observed |  | luminescence was observed |  |  | luminescence was observed | increase of intracellular calcium concentration | increase of intracellular calcium concentration in pituitary cells (RLU per second) ([8]; 1 μmol/L peptide): increase of intracellular calcium concentration
